Experimental data published in patent US20070276034A1, “Compounds, compositions and methods for the treatment of synucleinopathies” (priority 2002, published 2007).

What was measured:
[1] = test system: BE-M17 human neuroblastoma cells overexpressing A53T α-synuclein; assay: Thioflavin S aggregation assay in rotenone-treated cells; format: cell-based
Excerpt: Therefore, to test the therapeutic potential of the compounds, two cell-based assays were utilized. In both assays, rotenone is used to induce mitochondrial oxidative stress and α-synuclein aggregation. The first assay utilizes the binding of the fluorescent dye thioflavin S to structures with high β-sheet content including α-synuclein fibrils. Therefore, quantitative assessment of the extent of thioflavin S-positive staining of fixed cells is used to test the ability of the compounds to decrease the amount of α-synuclein aggregates. In the second assay, cell viability is assessed using the XTT Cytotoxicity assay, which is dependent on intact, functional mitochondria in live cells. Thus, the XTT Cytotoxicity assay is used to test the ability of the compounds to ameliorate the mitochondrial toxicity and resulting loss of viability associated with the accumulation of α-synuclein aggregates. Phrased another way, the XTT Cytotoxicity assay is used to gauge the compounds neuroprotective efficacy. These studies are presented in the following examples.
BE-M17 human neuroblastoma cells stably transfected with A53T-mutant human α-synuclein were obtained. Cell culture reagents were obtained from Gibco/Invitrogen, and cells were grown in OPTIMEM supplemented with 10% FBS, Penicillin (100 units/mil)-Streptomycin (100 μg/ml) and 500 μg/ml G418 as previously described (Ostrerova-Golts et al., J. Neurosci., 20:6048-6054, 2000).
Thioflavin S is commonly used to detect amyloid-containing structures in situ, including in brain tissue (Vallet et al., Acta Neuropathol., 83:170-178, 1992), and cultured cells (Ostrerova-Golts et al., J. Neurosci., 20:6048-6054, 2000), whereas thioflavin T is often used as an in vitro reagent to analyze the aggregation of soluble amyloid proteins into fibrils enriched in β-pleated sheet structures (LeVine III, Prot. Sci., 2:404-410, 1993). Therefore, Thioflavin S histochemistry was used on cultured cells to detect aggregates containing a high degree of […] structures that formed in response to oxidative stress-inducing agents (in this case rotenone) as previously described, with minor modifications (Ostrerova-Golts et al., J. Neurosci, 20:6048-6054, 2000). Briefly, for these studies, cells were grown on Poly-D-Lysine coated glass slide chambers at approximately 3×10^4 cells/cm^2. After 24 hours, cells were treated with 500 nM, 1 μM or 5 μM rotenone (Sigma) or vehicle (0.05% DMSO) as indicated. Immediately after rotenone (or vehicle) addition, compounds were added at the indicated concentration, or cell culture media only (no compound) in the presence of rotenone was added. Identical treatments were repeated after 48 hours. After an additional 48 hours, cells were fixed for 25 minutes in 3% paraformaldehyde. After a PBS wash, the cells were incubated with 0.015% thioflavin S in 50% ethanol for 25 minutes, washed twice for four minutes in 50% ethanol and twice for five minutes in deionized water and then mounted using an aqueous-based mountant designed to protect against photobleaching. Aggregates that bind to thioflavin S were detected with a fluorescent microscope using a High Q FITC filter set (480 to 535 nm bandwidth) and a 20× objective lens unless otherwise indicated. Between 8 and 16 representative images per condition were selected, imaged and processed by an experimenter who was blinded to treatment conditions. To assess the amount of thioflavin S-positive aggregates, the total area per field covered by thioflavin S-positive inclusions was determined. […] Spurious, non-cell associated fluorescence was manually removed. Unless indicated otherwise, data represent group means ±SEM. Statistical analyses were performed with GraphPad Prism (GraphPad Inc). Differences between means (two samples) were assessed by the […]. Differences among multiple means were assessed by one-factor ANOVA followed by Tukey's multiple comparison test.

[2] = target: T1, monomeric Aβ 1-42 (Homo sapiens, UniProt P05067); assay: SDS-PAGE/Western blot of Aβ 1-42 after incubation with compounds; format: biochemical; conditions: 25 μM pre-fibrillized Aβ 1-42, 37° C., 3 days, 0.2 μm filtrate, antibody 6E10
T1 construct: purchased Bachem Inc
T1 sequence (P05067 672-713): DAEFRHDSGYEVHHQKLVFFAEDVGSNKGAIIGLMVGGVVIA
Method: In this latter study, triplicate samples of pre-fibrillized Aβ 1-42 (25 μM) was incubated at 37° C. for 3 days, alone or in the presence of the compounds or EDTA. Five micrograms of each sample was then filtered through a 0.2 μm filter. Protein recovered from the filtrate was then loaded, and ran on a 10-20% Tris-Tricine SDS-PAGE, blotted to nitrocellulose and detected using an Aβ-antibody (clone 6E10; Senetek).

[3] = target: T2, Wild-type α-synuclein (Homo sapiens, UniProt P37840); assay: Circular dichroism spectroscopy - conversion of α-synuclein to β-sheet-rich structure; format: biochemical; conditions: for inhibition of conversion of α-synuclein to a β-sheet-rich structure (in words): 48 hours, 1 mg/ml compound (FIG. 13D)
T2 construct: purchased rPeptide (Athens, Ga., USA)
Method: For this purpose, α-synuclein was obtained from rPeptide (Athens, Ga., USA) as a lyophilized salt in 1 mg aliquots. Buffer components and other solvents were obtained from Sigma as A.C.S. Reagent grade or higher. Wild-type α-synuclein was dissolved in a buffer containing 9.5 mM phosphate and 139.7 mM potassium chloride, adjusted to pH 7.4. […] Aliquots of the solutions were taken at the appropriate time point for CD spectral analysis. CD spectra were acquired on a Jasco J-810 spectropolarimeter using a 0.1 cm path length cell. All spectra were recorded with a step size of 0.1 nm, a bandwidth of 1 nm, and an α-synuclein concentration of 0.1 mg/ml. The spectra were trimmed at the shortest wavelength which still provided a dynode voltage less than […]. The trimmed spectra were then subjected to a data processing routine beginning with noise reduction by Fourier transform followed by subtraction of a blank spectrum (compound or vehicle only without α-synuclein). These blank corrected spectra were then zeroed at 260 nm and the units converted from millidegrees to specific ellipticity. Percent β-sheet was determined from processed spectra by subtracting the ellipticity minimum value at approximately 218 nm from the maximum value observed at approximately 197 nm and referencing to a scale normalized to nearly fully folded and unfolded reference values, consistent with previous reports (Ramirez-Alvarado et al., J. Mol. […] Andersen et al., J. Am. Chem. […] These percent β-sheet values were then used to provide the respective relative % inhibition induced by the compounds.

[4] = 1 μM rotenone, 1 μg/ml compound
[5] = 5 μM rotenone, 1 μg/ml compound

In the case of Oc1ccc(Cc2ccc(O)c(O)c2)cc1O [Compound 3, 3,4,3′,4′-tetrahydroxydiphenylmethane], the “reduction of rotenone-induced thioflavin S-positive aggregates” value (shortened to “reduction”) [1, 4] is reported as 90% and the “reduction” value ([1]; 1 μM rotenone, 5 μg/ml compound) is reported as 90%.
In the case of O=C(NCc1ccc(O)c(O)c1)C(=Cc1ccc(O)c(O)c1)NC(=O)c1ccc(O)c(O)c1 [Compound 21, α-(3,4-dihydroxybenzamido)-3,4-dihydroxycinnamic acid 3,4-dihydroxybenzyl amide], the “detection of Aβ 1-42 monomers (~4 kilodalton band) on Western blot” value (shortened to “detection of Aβ 1-42 monomers”) [2] is reported as “not detected” and the “reduction” value [1, 5] is reported as 84%.
In the case of O=C(c1ccc(O)c(O)c1)N1CCN(C(=O)c2ccc(O)c(O)c2)CC1 [Compound 23, 1,4-bis(3,4-dihydroxybenzoyl)piperazine], the “inhibition of conversion of α-synuclein to a β-sheet-rich structure (in words)” value (shortened to “inhibition of conversion of α-synuclein”) [3] is reported as “modest inhibitory effects”.
With O=C(Nc1ccc(O)c(O)c1)c1ccc(O)c(O)c1 [Compound 51, 3,4-dihydroxybenzoic acid 3,4-dihydroxyanilide] the “detection of Aβ 1-42 monomers” value [2] was “not detected”, the “reduction” value ([1]; 1 μM rotenone, 500 ng/ml compound) was 87% and the “reduction” value [1, 4] was 91%. For the same compound, the “conversion of natively unfolded α-synuclein to a β-sheet-rich structure (in words)” value ([3]; 1 mg/ml α-synuclein, 1 mg/ml compound, 24 hours, 37°) was “prevents the conversion of natively unfolded α-synuclein to a β-sheet-rich structure”, the “dose sufficient to completely eliminate the conversion of α-synuclein to a β-sheet-rich structure” value ([3]; 1.0 mg/ml α-synuclein, 24 hours incubation at 37° C.) was 0.25 mg/mL and the IC50 ([3]; 1.0 mg/ml α-synuclein, 24 hours incubation at 37° C., read-out: dose sufficient to inhibit the conversion of α-synuclein to a β-sheet-rich structure by approximately 50% (converted)) was 574 µM. The “inhibition of conversion of α-synuclein” value [3] was “completed inhibited conversion”, the “β-sheet-rich structure of α-synuclein” value ([3]; compound added 24 hours after the beginning (t=24 hr), up to 144 hours at 37° C.) was ≤ 45% and the “β-sheet-rich structure of α-synuclein” value ([3]; compound added at the beginning (t=0 hr), sampled up to 144 hours) was “approximately 10%”.
In the case of O=C(Nc1ccc(O)c(O)c1)C(=O)Nc1ccc(O)c(O)c1 [Compound 63, oxalic acid bis(3,4-dihydroxyanilide)], the “inhibition of conversion of α-synuclein” value [3] is reported as “modest inhibitory effects”.
For O=C(Nc1ccc(O)c(O)c1)Nc1ccc(O)c(O)c1 [Compound 76, 1,3-bis(3,4-dihydroxyphenyl)urea], the “detection of Aβ 1-42 monomers” value [2] was “not detected”, the “reduction” value ([1]; 5 μM rotenone, 500 ng/ml compound) was 73% and the “reduction” value [1, 5] was 80%. The “reduction” value ([1]; 5 μM rotenone, 5 μg/ml compound) was 91% and the “inhibition of conversion of α-synuclein” value [3] was “completed inhibited conversion”.
With O=C(O)CN(CCN(CC(=O)O)CC(=O)O)CC(=O)O [EDTA, reference compound] the “detection of Aβ 1-42 monomers” value [2] was “detected as a ˜4 kilodalton band”.
